Source: US8946211B2, “Fused aminodihydrothiazine derivatives” (Eisai R&D Management Co., Ltd., priority 2008, dated 2015)
Read-outs that look alike come from different tables or passages of the source.

Tested on: Aβ42 production
Test: Quantification of Aβ peptide in culture of neurons from rat fetus brain (Aβ ELISA)
Type: cell-based
Details: rat primary cortical neuronal culture (embryonic day 18 Wistar rats), medium collected three days after addition of the compound, Aβx-42 ELISA, read-out: Aβ42 production reducing effect IC50
Experimental: Quantification of Aβ Peptide in Culture of Neurons from Rat Fetus Brain
(1) Rat Primary Neuronal Culture
Primary neuronal cultures were prepared from the cerebral cortex of embryonic day 18 Wistar rats (Charles River Japan, Yokohama, Japan). Specifically, the embryos were aseptically removed from pregnant rats under ether anesthesia. The brain was isolated from the embryo and immersed in an ice-cold L-15 medium (such as Invitrogen Corp. Cat #11415-064, Carlsbad, Calif., USA, or SIGMA L1518). The cerebral cortex was collected from the isolated brain under a stereoscopic microscope. The cerebral cortex fragments collected were enzymatically treated in an enzyme solution containing 0.25% trypsin (Invitrogen Corp. Cat #15050-065, Carlsbad, Calif., USA) and 0.01% DNase (Sigma D5025, St. Louis, Mo., USA) at 37° C. for 30 minutes to disperse the cells. Here, the enzymatic reaction was stopped by adding inactivated horse serum to the solution. The enzymatically treated solution was centrifuged at 1,500 rpm for five minutes to remove the supernatant. 5 to 10 mL of a medium was added to the resulting cell mass. Neurobasal medium (Invitrogen Corp. Cat #21103-049, Carlsbad, Calif., USA) supplemented with 2% B27 supplement (Invitrogen Corp. Cat #17504-044, Carlsbad, Calif., USA), 25 μM 2-mercaptoethanol (2-ME, WAKO Cat #139-06861, Osaka, Japan), 0.5 mM L-glutamine (Invitrogen Corp. Cat #25030-081, Carlsbad, Calif., USA), and Antibiotics-Antimycotics (Invitrogen Corp. Cat #15240-062, Carlsbad, Calif., USA) was used as the medium (Neurobasal/B27/2-ME). However, the above Neurobasal medium not supplemented with 2-ME (Neurobasal/B27) was used for the assay. The cells were redispersed by mild pipetting of the cell mass to which the medium was added. The cell dispersion was filtered through a 40-μm nylon mesh (Cell Strainer, Cat #35-2340, Becton Dickinson Labware, Franklin Lakes, N.J., USA) to remove the remaining cell mass, and thus a neuronal cell suspension was obtained. The neuronal cell suspension was diluted with the medium and then plated in a volume of 100 μL/well at an initial cell density of 5×10^5 cells/cm^2 in a 96-well polystyrene culture plate pre-coated with poly-L or D-lysine (Falcon Cat #35-3075, Becton Dickinson Labware, Franklin Lakes, N.J., USA coated with poly-L-lysine using the method shown below, or BIOCOAT™ cell environments Poly-D-lysine cell ware 96-well plate, Cat #35-6461, Becton Dickinson Labware, Franklin Lakes, N.J., USA). Poly-L-lysine coating was carried out as follows. 100 μg/mL of a poly-L-lysine (SIGMA P2636, St. Louis, Mo., USA) solution was aseptically prepared with a 0.15 M borate buffer (pH 8.5). […]

Question: For `NC1=N[C@@]2(c3cc(NC(=O)c4ncccc4Br)ccc3F)CCCCC[C@H]2CS1` [Example 253], which IC50 is on record?
Answer: 171 nM

Question: How did the IC50 turn out when `NC1=N[C@@]2(c3cc(NC(=O)c4ncccc4C(F)(F)F)ccc3F)CCCCC[C@H]2CS1` [Example 252] was run?
Answer: 187 nM

Question: `NC1=N[C@@]2(c3cc(NC(=O)c4ccc(Cl)cn4)ccc3F)CCCCC[C@H]2CS1` (single isomer, unassigned) [Example 248, N-[3-((4aR*,9aS*)-2-amino-4,4a,5,6,7,8,9,9a-octahydrocyclohepta[d][1,3]thiazin-9a-yl)-4-fluorophenyl]-5-chloropyridine-2-carboxamide] was tested. Which IC50 (Neuron, 72 h) did it give?
Answer: 16 nM

Question: `NC1=N[C@@]2(c3cc(NC(=O)c4ncccc4F)ccc3F)CCCCC[C@H]2CS1` [Example 251] was tested. Which IC50 did it give?
Answer: 120 nM
